Test results taken from US7572616B2, “Alternative oxidase and uses thereof” (priority 2005, dated 2009).

How the values were obtained:
[1] = test system: Drosophila mitochondria; experiment: Oxygen consumption of isolated mitochondrial suspensions from flies; type: biochemical, Drosophila melanogaster; conditions: mitochondria from AOX-expressing flies
[2] = test system: Flp-In™ T-REx™-293 cells; type: cell-based, human
[3] = test system: Flp-In™ T-REx™-293 cells; experiment: Succinate oxidation by digitonin permeabilized cells, Clark oxygen electrode; type: cell-based, human; conditions: AOX-expressing cells, 100 μM propyl gallate added after cyanide

CCCOC(=O)c1cc(O)c(O)c(O)c1 [n-propyl gallate]
sensitivity of residual cyanide-insensitive respiratory activity to AOX inhibitors ([1]; cyanide present): sensitive
effect of AOX inhibitors on respiration when cyanide absent ([1]; no cyanide): only a small effect
inhibition of residual cyanide-insensitive respiration [2]: completely inhibited
inhibition of respiration in the presence of cyanide [2]: almost completely inhibited
inhibition of cyanide-resistant succinate oxidation [3]: fully inhibited
